Results as given in patent US6514963B2, “Methods for the inhibition of egg production in trematodes” (The Regents of the University of California, priority 2000, dated 2003).

Columns and labels:
[1] = biological target: T1, L channels of isolated skeletal muscle (Oryctolagus cuniculus, UniProt P07293); settings: read-out: concentration of calcium required for 50% inhibition (Ki) of verapamil binding; isolated skeletal muscle (Galizzi et al. 1984); cited from earlier work
T1 construct: host or cells: isolated skeletal muscle

[2] = tested on: Echinostoma caproni; settings: elevated concentrations (microgram range: verapamil 50-200, nifedipine 25-200, diltiazem 5-50 μg/ml), 24 hours, ANOVA
[3] = tested on: Schistosoma mansoni; experiment: Schistosoma mansoni in vitro egg production, eight day culture of worm pairs; assay type: cell-based

T1 sequence (P07293 whole entry): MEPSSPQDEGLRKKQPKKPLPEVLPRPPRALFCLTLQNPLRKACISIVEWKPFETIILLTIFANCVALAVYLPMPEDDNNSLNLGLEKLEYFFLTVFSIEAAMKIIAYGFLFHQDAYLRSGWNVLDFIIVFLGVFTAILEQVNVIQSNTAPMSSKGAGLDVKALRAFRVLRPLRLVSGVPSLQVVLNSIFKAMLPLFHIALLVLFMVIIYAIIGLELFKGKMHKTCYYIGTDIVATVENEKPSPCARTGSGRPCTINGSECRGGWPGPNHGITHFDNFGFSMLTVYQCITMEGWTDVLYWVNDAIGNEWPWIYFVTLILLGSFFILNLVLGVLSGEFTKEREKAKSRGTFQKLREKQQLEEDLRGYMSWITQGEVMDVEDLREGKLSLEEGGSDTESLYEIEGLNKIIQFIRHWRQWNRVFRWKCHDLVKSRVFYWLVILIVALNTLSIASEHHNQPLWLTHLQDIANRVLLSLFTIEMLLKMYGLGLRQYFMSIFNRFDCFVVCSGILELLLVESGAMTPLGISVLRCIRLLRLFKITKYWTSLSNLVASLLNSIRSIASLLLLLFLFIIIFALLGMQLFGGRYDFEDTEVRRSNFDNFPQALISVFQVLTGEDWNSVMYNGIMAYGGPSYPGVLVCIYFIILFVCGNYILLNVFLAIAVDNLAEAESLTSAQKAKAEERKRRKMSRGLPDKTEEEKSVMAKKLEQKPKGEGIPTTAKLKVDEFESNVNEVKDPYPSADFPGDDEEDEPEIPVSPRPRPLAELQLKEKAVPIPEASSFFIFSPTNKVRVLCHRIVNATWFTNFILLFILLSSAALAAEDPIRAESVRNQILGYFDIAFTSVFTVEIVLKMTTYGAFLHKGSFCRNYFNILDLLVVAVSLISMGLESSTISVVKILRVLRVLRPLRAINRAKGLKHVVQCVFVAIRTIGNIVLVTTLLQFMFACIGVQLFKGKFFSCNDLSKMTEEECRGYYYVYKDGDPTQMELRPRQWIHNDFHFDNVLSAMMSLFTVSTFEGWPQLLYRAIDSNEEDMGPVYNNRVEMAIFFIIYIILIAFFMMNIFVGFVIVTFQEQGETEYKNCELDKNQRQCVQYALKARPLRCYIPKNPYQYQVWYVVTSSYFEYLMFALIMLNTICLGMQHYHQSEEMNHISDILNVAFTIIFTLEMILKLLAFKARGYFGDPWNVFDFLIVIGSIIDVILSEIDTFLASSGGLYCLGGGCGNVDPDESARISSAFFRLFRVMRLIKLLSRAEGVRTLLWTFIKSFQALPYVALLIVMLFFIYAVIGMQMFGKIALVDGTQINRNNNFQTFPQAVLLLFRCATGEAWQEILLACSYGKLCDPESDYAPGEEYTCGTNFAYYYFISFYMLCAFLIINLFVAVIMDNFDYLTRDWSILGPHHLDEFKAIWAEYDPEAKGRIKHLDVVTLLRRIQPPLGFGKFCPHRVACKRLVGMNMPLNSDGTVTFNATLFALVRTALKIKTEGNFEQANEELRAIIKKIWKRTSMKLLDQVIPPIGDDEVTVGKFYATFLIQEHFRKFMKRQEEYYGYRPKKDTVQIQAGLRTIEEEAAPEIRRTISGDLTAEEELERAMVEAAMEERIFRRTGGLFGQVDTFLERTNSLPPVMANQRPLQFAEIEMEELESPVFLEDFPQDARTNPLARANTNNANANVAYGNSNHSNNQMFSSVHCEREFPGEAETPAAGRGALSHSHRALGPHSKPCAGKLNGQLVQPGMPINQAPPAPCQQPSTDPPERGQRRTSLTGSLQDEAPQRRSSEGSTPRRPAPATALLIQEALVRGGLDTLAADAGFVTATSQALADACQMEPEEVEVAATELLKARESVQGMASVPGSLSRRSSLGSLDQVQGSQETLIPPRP
T1 sequence (P13806 27-960 partner limits assumed): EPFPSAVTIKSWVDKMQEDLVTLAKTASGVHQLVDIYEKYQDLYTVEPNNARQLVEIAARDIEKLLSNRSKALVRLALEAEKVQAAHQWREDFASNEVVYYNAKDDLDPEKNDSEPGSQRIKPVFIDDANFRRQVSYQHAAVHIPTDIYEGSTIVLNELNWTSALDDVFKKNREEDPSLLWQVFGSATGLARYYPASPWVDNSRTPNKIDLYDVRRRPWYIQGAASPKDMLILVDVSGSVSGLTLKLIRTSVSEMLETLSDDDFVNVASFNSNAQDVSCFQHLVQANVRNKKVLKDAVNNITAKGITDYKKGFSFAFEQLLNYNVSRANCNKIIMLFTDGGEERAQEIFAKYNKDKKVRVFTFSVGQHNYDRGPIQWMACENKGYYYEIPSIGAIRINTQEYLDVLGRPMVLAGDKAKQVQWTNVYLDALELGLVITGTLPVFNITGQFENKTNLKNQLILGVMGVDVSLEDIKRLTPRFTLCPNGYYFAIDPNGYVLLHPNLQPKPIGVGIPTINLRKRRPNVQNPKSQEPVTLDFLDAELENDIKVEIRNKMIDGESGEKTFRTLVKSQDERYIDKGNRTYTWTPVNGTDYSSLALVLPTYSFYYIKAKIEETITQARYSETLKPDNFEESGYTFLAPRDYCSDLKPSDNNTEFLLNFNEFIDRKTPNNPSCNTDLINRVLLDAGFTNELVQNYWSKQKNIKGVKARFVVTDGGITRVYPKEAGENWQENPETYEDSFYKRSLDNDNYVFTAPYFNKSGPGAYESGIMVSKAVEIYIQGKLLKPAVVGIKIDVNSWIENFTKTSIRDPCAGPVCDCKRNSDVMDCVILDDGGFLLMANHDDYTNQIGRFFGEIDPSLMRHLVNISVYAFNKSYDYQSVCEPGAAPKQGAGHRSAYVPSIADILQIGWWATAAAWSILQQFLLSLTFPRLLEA
T1 sequence (P13806 961-1106 partner limits assumed): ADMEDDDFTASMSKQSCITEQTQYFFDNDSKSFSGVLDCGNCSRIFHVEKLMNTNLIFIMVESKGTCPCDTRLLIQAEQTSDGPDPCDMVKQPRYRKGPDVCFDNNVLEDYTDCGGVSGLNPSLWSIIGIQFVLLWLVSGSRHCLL
T1 sequence (P19517 whole entry partner): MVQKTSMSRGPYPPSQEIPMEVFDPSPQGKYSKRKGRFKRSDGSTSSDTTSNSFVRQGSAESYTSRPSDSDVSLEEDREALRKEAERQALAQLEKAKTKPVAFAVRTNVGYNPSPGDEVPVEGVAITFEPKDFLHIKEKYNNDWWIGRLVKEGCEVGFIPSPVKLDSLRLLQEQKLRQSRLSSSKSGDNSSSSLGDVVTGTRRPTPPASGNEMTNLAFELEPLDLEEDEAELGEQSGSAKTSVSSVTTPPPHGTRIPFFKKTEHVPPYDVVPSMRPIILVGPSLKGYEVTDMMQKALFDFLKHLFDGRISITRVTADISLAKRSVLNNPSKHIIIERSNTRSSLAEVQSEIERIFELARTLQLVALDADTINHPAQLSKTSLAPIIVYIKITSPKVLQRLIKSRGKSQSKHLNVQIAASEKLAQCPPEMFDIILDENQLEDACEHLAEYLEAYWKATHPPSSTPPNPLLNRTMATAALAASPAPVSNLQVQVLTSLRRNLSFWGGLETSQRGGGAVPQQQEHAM
T1 sequence (P19518 whole entry partner): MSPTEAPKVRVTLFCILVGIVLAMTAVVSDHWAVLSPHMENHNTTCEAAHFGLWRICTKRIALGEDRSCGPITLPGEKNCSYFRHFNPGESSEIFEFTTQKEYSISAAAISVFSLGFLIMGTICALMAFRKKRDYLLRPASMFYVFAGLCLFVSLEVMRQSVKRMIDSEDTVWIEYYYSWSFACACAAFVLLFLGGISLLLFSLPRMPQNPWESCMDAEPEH

For [Ca] [calcium], the Ki [1] is listed as roughly 300 µM.

With COc1ccc(CCN(C)CCCC(C#N)(c2ccc(OC)c(OC)c2)C(C)C)cc1OC (stereo not drawn) [verapamil, α-[3-[[2-(3,4-dimethoxyphenyl)ethyl]methyl-amine]propyl]-3,4-dimethoxy-α-(1-methylethyl)-benzeneacetonitrile] the “effect on egg production compared to controls” value [2] was “significantly inhibited”, the “effect on proportion of worms which did not produce eggs until after 48 hours of culture” value ([3]; 0.25 μg/ml) was “not” and the “effect on proportion of worms producing eggs in the three production categories” value ([3]; 0.25 μg/ml and 2.5 μg/ml, Chi Square 4.15, p=0.386) was “did not significantly affect”. The “effect on proportion of worms which did not produce eggs until after 48 hours of culture” value ([3]; 2.5 μg/ml, Fisher's exact test, p=0.013) was “significantly increased”, the “decrease in the total number of eggs produced by all worms of the treatment group” value ([3]; 2.5 μg/ml, eight days) was 38% and the “worms in the highest egg-production category” value ([3]; 2.5 μg/ml, control worms 34%) was 15%. For the same molecule, the proportion of non-producers ([3]; 25 μg/ml as printed, control worms 17%) was 30%, the “effect on proportion of non-producers, pairwise comparison with control” value ([3]; 50 μg, Fisher Exact test, 2-tailed, p<0.0001) was “significantly affected egg production” and the “decrease in the total number of eggs produced by all worms of the treatment group” value ([3]; 50 μg/ml, eight days) was 100%. For the same molecule, the egg production ([3]; 50 μg/ml, eight days) was “no eggs were produced at any time”, the “number of worms producing eggs 48+ Hours” value ([3]; verapamil 0.25 μg/ml) was 8 and the “number of worms producing eggs within 48 Hours” value ([3]; verapamil 0.25 μg/ml) was 24. The “number of worms producing eggs 48+ Hours” value ([3]; verapamil 2.5 μg/ml) was 14, the “number of worms producing eggs within 48 Hours” value ([3]; verapamil 2.5 μg/ml) was 14 and the “number of worms producing eggs 48+ Hours” value ([3]; verapamil 50 μg/ml) was 0. For the same molecule, the “number of worms producing eggs within 48 Hours” value ([3]; verapamil 50 μg/ml) was 0.
